Data on eight compounds can be found in US11053218B2, “3-(1-oxoisoindolin-2-yl)piperidine-2,6-dione derivatives and uses thereof” (Novartis AG, priority 2017, dated 2021).

What all share (type): cell-based
In assay [1] the target is IKZF2 (Homo sapiens, UniProt Q96SW2+Q9UKS7). The assay can be described thus: Prolabel quantification of IKZF2 protein levels in 293GT cells.
The target in assay [2] is IKZF1 (Homo sapiens, UniProt Q13422+Q96SW2). The assay can be described thus: Prolabel quantification of IKZF1 protein levels in 293GT cells. The settings on record: Prolabel assay, read-out: IKZF1 EC50.
Assay [3] relates to primary human regulatory T cells. The assay can be described thus: Expansion of purified primary human Treg cells in the presence of compound. The following applies: FIG. 1. The protocol: (§1) Human buffy coats were obtained from BioreclamationIVT, in the USA. CD4+ T cells were isolated from said buffy coats using the RosetteSep Human CD4+ T cell enrichment Cocktail (Stemcell technologies, USA) and gradient centrifugation over Ficoll Paque Plus (GE HealthCare LifeSciences, USA) as per manufacturer's recommendations. Cells were resuspended in RPMI medium supplemented with 1% penicillin-Streptomycin solution, 10% Fetal Bovine Serum, HEPES (10 mM), MEM NEAA ([…]), sodium pyruvate (1 mM) (all supplements from Thermo Fisher Scientific, USA), thereafter referred to as complete RPMI (cRPMI), and rested overnight at 37° C., 5% CO2 in the presence of 2 U/mL rhIL-2 (Proleukin, Novartis). Cells were collected and resuspended in autoMACS Running Buffer supplemented with BSA (Miltenyi Biotec, USA) and labelled using CD4-FITC antibody (clone RPA-T4), CD25-APC antibody (clone M-A251) (Biolegend) and CD25 Microbeads (Miltenyi Biotec, USA). CD25-enriched cells were then isolated using the autoMACS Pro Separator. A highly purified population of Treg cells was then obtained by further sorting CD4+CD25Hi cells using a Sony SH800 cell sorter. The resulting Treg cell population was routinely above 90% pure according to FOXP3 expression. […]
Cell were collected and counted and the fold expansion was calculated as (number of cells recovered)/(number of cells plated). […]

In assay [4] the target is GSPT1 (Homo sapiens, UniProt P15170+Q96SW2). The assay can be described thus: Prolabel quantification of GSPT1 protein levels in 293GT cells. The settings on record: Prolabel assay, read-out: GSPT1 EC50.
In assay [5] the test system is primary human regulatory T cells. The assay can be described thus: In vitro suppression of the proliferation of CD4+ T cells by expanded Treg cells. The settings on record: five independent donors, vs DMSO, FIG. 3. The protocol: as §1, with “Separator.” for “Separator. A highly purified population of Treg cells was then obtained by further sorting CD4+CD25Hi cells using a Sony SH800 cell sorter. The resulting Treg cell population was routinely above 90% pure according to FOXP3 expression.”
Primary human PBMCs were obtained from freshly prepared buffy coats (BioReclamationIVT) using gradient centrifugation over Ficoll Paque Plus as per manufacturer's recommendations. […] Proliferation was assessed in each population as the proportion of cells having diluted CFSE. Suppression was assessed for each condition in comparison to the responders plated alone.

For assay [6] the test system is unchanged.
[7] abbreviates: Prolabel assay, 293GT cells; read-out: IKZF2 EC50.
Where [8] appears, read: 24 h, 10 μM, 24 h, 293GT cells; read-out: IKZF2 % protein reduction at 10 μM, 24 h.
Where [9] appears, read: 10 μM, 24 h, 293GT cells; read-out: IKZF2 % protein reduction at 10 μM, 24 h.

Structures are written as SMILES. Entries after “also recorded” stand apart in the source; their conditions may differ. Like-named read-outs stand apart in the source and are kept apart here.

Sequence of IKZF2 (Q9UKS7 whole entry): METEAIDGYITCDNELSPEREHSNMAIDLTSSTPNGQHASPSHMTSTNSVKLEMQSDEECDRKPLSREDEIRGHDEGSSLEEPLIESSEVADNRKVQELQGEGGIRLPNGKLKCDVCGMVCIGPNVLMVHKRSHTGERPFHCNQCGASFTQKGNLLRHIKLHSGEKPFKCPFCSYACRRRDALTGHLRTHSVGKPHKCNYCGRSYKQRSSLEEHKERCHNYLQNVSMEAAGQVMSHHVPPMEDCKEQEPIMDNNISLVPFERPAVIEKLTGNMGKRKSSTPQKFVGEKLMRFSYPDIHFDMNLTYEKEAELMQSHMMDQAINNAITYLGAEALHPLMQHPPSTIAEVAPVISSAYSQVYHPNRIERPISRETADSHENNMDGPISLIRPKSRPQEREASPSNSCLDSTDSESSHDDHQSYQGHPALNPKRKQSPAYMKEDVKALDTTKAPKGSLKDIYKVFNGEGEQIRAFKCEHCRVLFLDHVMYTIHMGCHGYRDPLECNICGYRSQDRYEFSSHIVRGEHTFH
Sequence of IKZF2 (Q96SW2 whole entry): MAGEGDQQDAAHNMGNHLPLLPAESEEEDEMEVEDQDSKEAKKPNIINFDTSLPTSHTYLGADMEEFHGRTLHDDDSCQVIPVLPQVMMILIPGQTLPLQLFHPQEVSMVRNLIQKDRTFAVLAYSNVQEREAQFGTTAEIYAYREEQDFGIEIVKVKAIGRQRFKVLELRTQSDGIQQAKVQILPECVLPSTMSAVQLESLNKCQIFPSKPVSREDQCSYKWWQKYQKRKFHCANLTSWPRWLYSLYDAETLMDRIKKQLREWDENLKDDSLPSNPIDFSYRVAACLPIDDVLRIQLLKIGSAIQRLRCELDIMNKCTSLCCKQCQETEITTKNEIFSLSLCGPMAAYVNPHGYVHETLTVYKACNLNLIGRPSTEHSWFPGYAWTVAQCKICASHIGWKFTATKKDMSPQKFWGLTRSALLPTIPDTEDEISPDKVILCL
Sequence of IKZF2 (Q16531 whole entry partner): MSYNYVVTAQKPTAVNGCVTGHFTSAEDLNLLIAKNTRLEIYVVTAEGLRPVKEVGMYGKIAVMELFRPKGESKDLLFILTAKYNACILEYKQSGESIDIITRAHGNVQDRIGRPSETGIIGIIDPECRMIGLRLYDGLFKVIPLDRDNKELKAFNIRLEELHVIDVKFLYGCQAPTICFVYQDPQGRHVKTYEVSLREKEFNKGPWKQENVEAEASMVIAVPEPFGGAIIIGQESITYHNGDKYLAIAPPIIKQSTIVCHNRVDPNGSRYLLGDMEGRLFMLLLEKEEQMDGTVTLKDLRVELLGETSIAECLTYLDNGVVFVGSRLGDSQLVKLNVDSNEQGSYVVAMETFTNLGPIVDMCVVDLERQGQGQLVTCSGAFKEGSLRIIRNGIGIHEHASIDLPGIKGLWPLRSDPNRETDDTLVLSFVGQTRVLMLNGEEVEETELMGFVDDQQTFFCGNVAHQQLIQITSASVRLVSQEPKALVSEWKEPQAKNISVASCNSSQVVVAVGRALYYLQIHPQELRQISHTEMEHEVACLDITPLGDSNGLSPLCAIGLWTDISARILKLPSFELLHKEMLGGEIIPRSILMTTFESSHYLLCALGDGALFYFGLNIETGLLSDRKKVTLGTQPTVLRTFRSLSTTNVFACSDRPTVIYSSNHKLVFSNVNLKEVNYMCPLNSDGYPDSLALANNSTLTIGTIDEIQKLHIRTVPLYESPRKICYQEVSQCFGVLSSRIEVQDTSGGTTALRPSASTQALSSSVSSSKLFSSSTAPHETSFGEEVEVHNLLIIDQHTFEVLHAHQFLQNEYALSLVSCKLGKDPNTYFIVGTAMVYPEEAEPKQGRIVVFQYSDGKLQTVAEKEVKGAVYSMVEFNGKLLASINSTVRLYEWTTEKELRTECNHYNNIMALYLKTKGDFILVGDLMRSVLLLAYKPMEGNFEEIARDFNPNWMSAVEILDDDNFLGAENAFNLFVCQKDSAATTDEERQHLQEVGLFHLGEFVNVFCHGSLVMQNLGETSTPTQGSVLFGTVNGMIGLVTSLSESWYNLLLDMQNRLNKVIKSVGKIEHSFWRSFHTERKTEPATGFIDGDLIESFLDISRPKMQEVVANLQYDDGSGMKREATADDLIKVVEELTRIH
Sequence of GSPT1 (P15170 whole entry): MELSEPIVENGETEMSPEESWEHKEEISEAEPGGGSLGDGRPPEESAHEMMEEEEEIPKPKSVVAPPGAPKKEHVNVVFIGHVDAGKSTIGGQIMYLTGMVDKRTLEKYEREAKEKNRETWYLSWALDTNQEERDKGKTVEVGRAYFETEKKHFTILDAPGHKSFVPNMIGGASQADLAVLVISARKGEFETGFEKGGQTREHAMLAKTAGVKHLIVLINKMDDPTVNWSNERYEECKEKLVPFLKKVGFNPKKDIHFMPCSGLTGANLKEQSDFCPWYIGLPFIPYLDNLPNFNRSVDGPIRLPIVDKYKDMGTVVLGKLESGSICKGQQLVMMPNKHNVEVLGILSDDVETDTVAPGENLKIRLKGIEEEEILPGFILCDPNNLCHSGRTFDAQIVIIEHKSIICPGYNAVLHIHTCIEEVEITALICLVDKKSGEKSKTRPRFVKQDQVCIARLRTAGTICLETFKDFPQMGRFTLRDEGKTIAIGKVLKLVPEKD
Sequence of GSPT1 (Q96SW2 whole entry): as the sequence (Q96SW2 whole entry) above
Sequence of GSPT1 (Q16531 whole entry partner): as the sequence (Q16531 whole entry partner) above
Sequence of IKZF1 (Q13422 whole entry): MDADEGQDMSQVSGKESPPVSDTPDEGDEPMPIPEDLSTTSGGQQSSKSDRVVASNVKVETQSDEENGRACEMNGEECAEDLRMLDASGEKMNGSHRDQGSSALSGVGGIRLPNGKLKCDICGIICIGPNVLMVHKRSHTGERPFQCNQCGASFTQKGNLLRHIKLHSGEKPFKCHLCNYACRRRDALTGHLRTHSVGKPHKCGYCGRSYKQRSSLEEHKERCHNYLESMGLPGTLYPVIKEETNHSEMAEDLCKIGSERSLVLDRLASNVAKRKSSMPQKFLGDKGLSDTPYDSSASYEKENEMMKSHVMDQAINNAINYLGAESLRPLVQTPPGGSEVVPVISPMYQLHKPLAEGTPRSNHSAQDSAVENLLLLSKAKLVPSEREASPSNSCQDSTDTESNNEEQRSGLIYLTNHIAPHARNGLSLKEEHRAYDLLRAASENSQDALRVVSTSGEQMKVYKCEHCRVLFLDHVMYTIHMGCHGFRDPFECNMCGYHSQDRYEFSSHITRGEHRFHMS
Sequence of IKZF1 (Q96SW2 whole entry): as the sequence (Q96SW2 whole entry) above
Sequence of IKZF1 (Q16531 whole entry partner): as the sequence (Q16531 whole entry partner) above

Take `O=C1CCC(N2Cc3cc(C4CCN(Cc5ccccc5)CC4)ccc3C2=O)C(=O)N1` (stereo not drawn) [Compound I-57, 3-(5-(1-benzylpiperidin-4-yl)-1-oxoisoindolin-2-yl)piperidine-2,6-dione]: the “IKZF2 protein levels as compared to the control (DMSO)” value in assay [1] is “decreased”. The inhibition at 10 µM in assay [1] (24 h, read-out: IKZF2 % protein reduction at 10 μM, 24 h) is 70%. The DC50 in assay [1] (setting [7]) was 0.009 µM; in assay [2], over 50 µM; in assay [4], over 50 µM. Moreover, in assay [3] (expanded in vitro 12 days, vs DMSO, compound 10 μM), the “Treg cells expand less in the presence of compound” value was 30%. Besides, in assay [3] (purified primary human Treg cells, DMSO control), the “Expansion of purified Treg cells as compared to the control” value is listed as “impaired”. Moreover, the “In vitro suppression of the proliferation of CD4+ T cells by expanded Treg cells” value in assay [5] is reported as “impaired; also recorded: less able to repress”. Further, in assay [6], the “Increase of the proportion of cells producing IL-2 (median)” value came out at 2.16 fold.

Turning to `Cc1ccc(CN2CCC(c3ccc4c(c3)CN(C3CCC(=O)NC3=O)C4=O)CC2)cc1` (stereo not drawn) [Compound I-158, 3-(5-(1-(4-methylbenzyl)piperidin-4-yl)-1-oxoisoindolin-2-yl)piperidine-2,6-dione], in assay [1] (setting [8]), the inhibition at 10 µM was found to be 55%. The values for the DC50 in assay [1] (setting [7]), in assay [2] and in assay [4] were 0.016 µM, over 50 µM and over 50 µM, respectively.

Consider `O=C1CCC(N2Cc3cc(C4CCN(Cc5cnc(N6CCCC6)nc5)CC4)ccc3C2=O)C(=O)N1` (stereo not drawn) [Compound I-142, 3-(1-oxo-5-(1-((2-(pyrrolidin-1-yl)pyrimidin-5-yl)methyl)piperidin-4-yl)isoindolin-2-yl)piperidine-2,6-dione], for which the inhibition at 10 µM in assay [1] (setting [8]) was determined as 75%. Moreover, the DC50 in assay [1] (setting [7]) was 0.016 µM; in assay [2] it was over 30 µM; in assay [4] it was over 30 µM.

For the compound `COC(=O)CN1CCC(c2ccc3c(c2)CN(C2CCC(=O)NC2=O)C3=O)CC1` (stereo not drawn) [Compound I-169, methyl 2-(4-(2-(2,6-dioxopiperidin-3-yl)-1-oxoisoindolin-5-yl)piperidin-1-yl)acetate], the inhibition at 10 µM in assay [1] (setting [9]) is 20%. The DC50 in assay [2] and in assay [4] was over 50 µM in each case.

Consider `O=C1CCC(N2Cc3cc(C4CCN(Cc5cc[nH]n5)CC4)ccc3C2=O)C(=O)N1` (stereo not drawn) [Compound I-118, 3-(5-(1-((1H-pyrazol-3-yl)methyl)piperidin-4-yl)-1-oxoisoindolin-2-yl)piperidine-2,6-dione], for which, in assay [1] (setting [8]), the inhibition at 10 µM worked out at 55%. The DC50 in assay [1] (setting [7]) was 0.065 µM; in assay [2], over 50 µM; in assay [4], over 50 µM.

Turning to `O=C1CCC(N2Cc3cc(C4CCN(CC5CCCCC5)CC4)ccc3C2=O)C(=O)N1` (stereo not drawn) [Compound I-11, 3-(5-(1-(cyclohexylmethyl)piperidin-4-yl)-1-oxoisoindolin-2-yl)piperidine-2,6-dione], the inhibition at 10 µM in assay [1] (setting [8]) was 65%. The DC50 is 0.013 µM in assay [1] (setting [7]), over 50 µM in assay [2] and over 50 µM in assay [4].

For the compound `O=C1CCC(N2Cc3cc(C4CCN(c5ccccc5)CC4)ccc3C2=O)C(=O)N1` (stereo not drawn) [Compound I-170, 3-(1-oxo-5-(1-phenylpiperidin-4-yl)isoindolin-2-yl)piperidine-2,6-dione], the inhibition at 10 µM in assay [1] (setting [9]) is 5%. Also, the DC50 in assay [2] and in assay [4] was over 50 µM throughout.

Turning to `O=C1CCC(N2Cc3cc(C4CCN(Cc5cc6ccccc6[nH]5)CC4)ccc3C2=O)C(=O)N1` (stereo not drawn) [Compound I-136, 3-(5-(1-((1H-indo1-2-yl)methyl)piperidin-4-yl)-1-oxoisoindolin-2-yl)piperidine-2,6-dione], the inhibition at 10 µM in assay [1] (setting [8]) is 80%. Also, in assay [1] (Prolabel assay in HEK293GT cells, bar graph), the “IKZF2 protein levels as compared to the control (DMSO)” value was “decreased”. The DC50 is 0.012 µM in assay [1] (setting [7]), over 30 µM in assay [2] and over 30 µM in assay [4].
